Test results taken from patent publication US5686448A (priority 1995, dated 1997).
Read-outs that look alike come from different tables or passages of the source.

Experiments:
[1] = test system: Flow 1000 cells (foreskin cells); conditions: 25 mg/ml, 48 hours
Protocol: (§1) Healthy confluent monolayer cell cultures were overlaid with 1 ml of the drug and incubated for 48 hours at 37° C. and then stained. Cell cultures with maintenance media were used as controls.

HSV-1 (F strain) [2] = test system: HSV-1 (F strain)
[3] = test system: RK-13, Vero and WISH cells
cell-free HSV virus = conditions: 20 mg/ml
Protocol: Both mixtures were maintained at 4° C. for 30 minutes, 60 minutes, or 90 minutes. 0.3 ml of the solutions were plated onto susceptible cell cultures and incubated at 37° C. for 36 hours. All cultures were stained and compared to the virus control.

HSV-1 (McKrae strain) [4] = conditions: for cells exhibiting CPE, area of infection per field: 20 mg/ml
HSV-2 = conditions: for Percent Reduction of lesions / # of lesions: TEAC ointment from 12-16 hours p.i.
Protocol: Female guinea pigs (obtained from Charles River, Inc.) weighing approximately 200 g were used as a model for HSV-2 skin lesions. The animals were anesthetized with 0.15 ml of Ketamine-Rompum mixture. The animals were first shaved on their back with a hair clipper and then treated with a depilatory cream (Nair). The denuded area was washed well and then dried. A tuberculin tyne was washed with ethanol and air dried.
Two methods were tried for infecting the animals with the virus. In one, a drop of HSV-2 suspension was placed on the skin and the skin was punctured with the tyne. In the second method, the tyne was dipped in the virus suspension before puncturing the skin.
In the first experiment, each of 3 guinea pigs was infected on three areas of their backs. At 3 days post infection, treatment was begun on one side of each animal, leaving the other side untreated as a control.
The animals were examined daily for vesicles (V), crust (C) and for erythema (R) alone.
In the next experiment 6 guinea pigs were infected in the same manner as the initial 3 guinea pigs. Treatment was begun 12-16 hours post infection. […] Lesions showing an erythematous base with either a blister or a crust on top were considered to HSV specific. […] Both the control animals and treated animals were carefully read in the same manner.

HSV-1 (McKrae strain) [5] = conditions: for No. of Plaques: virus controls 270, 270, 252
Protocol: All cultures were incubated at 37° C. in a 5% CO2 humidified atmosphere. The cultures were stained with crystal violet to aid in counting the plaque.

Vero cells = test system: Vero cells
Protocol: To determine the toxicity level of the drug, all three cell lines--RK-13, Vero cells, and WISH cells--were used. In the toxicity experiments, the effect of the drug on the uninfected cell for a range of periods of time was determined. Accordingly, cultures were incubated with and without the drug. The time of exposure was from one to seven hours. A comparison was then made between the drug tested cultures and the control cultures. After each period of incubation, the cells were washed and fresh media was added to the cells. The cell viability was then determined by dividing these cultures and having them grow into new cell cultures.
At the end of the incubation period, the cultures were washed twice with sterile PBS (Dulbecco). Fresh medium was added to each of the cultures. The cultures were then incubated for an additional 24 hours.
as §1

[6] = Source text: Patient B is a person diagnosed as having both HSV type 1 (expressed as oral lesions) and HSV type 2 (expressed as penile lesions).
Patient E is a person who weighed 93 kg when they reported for treatment.
Patient K is a person who weighed 59 kg. when they reported for treatment. They were diagnosed as having HSV type 2. They described a history of lesions on the buttocks and genital region with attacks occurring monthly in cooler weather and weekly in warmer weather.

HSV-1 (F strain) [7] = test system: HSV-1 (F strain); remark: listed apart in the source
[8] = Exp. 1D, added after adsorption, 25.0 mg/culture
[9] = Exp. 1D, added after adsorption, 50.0 mg/culture

CC[N+](CC)(CC)CC.[Cl-] [TEAC, tetraethylammonium chloride]
toxicity [1]: toxicity | % plaque inhibition (HSV-1 (F strain) [2]; Exp. 1C, added after inoculation, 0.62 mg/culture): 30% | % plaque inhibition (HSV-1 (F strain) [2]; Exp. 1C, added after inoculation, 1.25 mg/culture): 39% | % plaque inhibition (HSV-1 (F strain) [2]; Exp. 1C, added after inoculation, 2.50 mg/culture): 46% | % plaque inhibition (HSV-1 (F strain) [2]; Exp. 1C, added after inoculation, 5.00 mg/culture): 45% | % plaque inhibition (HSV-1 (F strain) [2]; Exp. 1C, added after inoculation, 10.00 mg/culture): 56% | antiviral activity (HSV-1 (F strain) [2]; Exp. 1C, all dilutions): Antiviral activity was seen in all dilutions tested | % plaque inhibition (HSV-1 (F strain) [2]; Exp. 1D, added after adsorption, 6.2 mg/culture): 20% | % plaque inhibition (HSV-1 (F strain) [2]; Exp. 1D, added after adsorption, 12.5 mg/culture): 62% | plaque formation (HSV-1 (F strain) [2]; Exp. 1D, added after adsorption, 25 mg/culture): no plaque formed | % plaque inhibition (HSV-1 (F strain) [2]; [8]): 100% | cell layer appearance (thin = cells attached, monolayer not confluent) (HSV-1 (F strain) [2]; [8]): thin | plaque formation (HSV-1 (F strain) [2]; Exp. 1D, added after adsorption, 50 mg/culture): no plaque formed | % plaque inhibition (HSV-1 (F strain) [2]; [9]): 100% | cell layer appearance (thin = cells attached, monolayer not confluent) (HSV-1 (F strain) [2]; [9]): thin | inhibition of in vitro replication (HSV-1 (F strain) [2]; HSV-1, summary): inhibited the in vitro replication of HSV-1 and HSV-2 | reversibility of toxicity (thin) / morphology changes ([3]; drug removed, fresh media added): totally reversible | change in morphology or cytopathic effect ([3]; one to seven hours exposure): No change in morphology or cytopathic effect | rate of growth vs cultures without TEAC ([3]; one to seven hours exposure): no difference in the rate of growth | toxicity to cells ([3]; one to seven hours exposure): not toxic to cells | inactivation of cell-free virus (cell-free HSV virus): does not inactivate the virus | cells exhibiting CPE, area of infection per field (HSV-1 (McKrae strain) [4]; 6 hours P.I., virus control 1/4): 1/6 | cells exhibiting CPE, area of infection per field (HSV-1 (McKrae strain) [4]; 30 hours P.I., virus control 1/2): scattered | No. of cells with virus particles (HSV-1 (McKrae strain) [4]; 6 hours P.I., 100 cells examined, control 0): 0 | No. of cells with internuclear dense bodies (HSV-1 (McKrae strain) [4]; 6 hours P.I., 100 cells examined, control 14): 12 | Total % (HSV-1 (McKrae strain) [4]; 6 hours P.I., 100 cells examined, control 14%): 12% | cell membrane appearance (HSV-1 (McKrae strain) [4]; 6 hours post infection): unusually extended and wavy | No. of cells with internuclear dense bodies (HSV-1 (McKrae strain) [4]; 24 hours P.I., 300 cells examined, control 0 of 50): 12 | No. of cells with virus particles (HSV-1 (McKrae strain) [4]; 24 hours P.I., 300 cells examined, control 50 of 50): 8 | Total % (HSV-1 (McKrae strain) [4]; 24 hours P.I., 300 cells examined, control 100%): 6% | nucleocapsid size (HSV-1 (McKrae strain) [4]; 24 hours post infection): about 99.6 A | nucleocapsids in cytoplasm (HSV-1 (McKrae strain) [4]; 24 hours post infection): coreless nucleocapsids in paracrystalline arrays | virus particles in inter-cellular space (HSV-1 (McKrae strain) [4]; 24 hours post infection): some abnormal virus particles were detected | Percent Reduction of lesions (HSV-2; day 3 P.I.): 21% | # of lesions (HSV-2; day 3 P.I., control 19): 15 | Percent Reduction of lesions (HSV-2; day 4 P.I.): 27.5% | # of lesions (HSV-2; day 4 P.I., control 40): 29 | Percent Reduction of lesions (HSV-2; day 5 P.I.): 58.5% | # of lesions (HSV-2; day 5 P.I., control 41): 17 | Percent Reduction of lesions (HSV-2; day 6 P.I.): 58.3% | # of lesions (HSV-2; day 6 P.I., control 36): 15 | lesion appearance (HSV-2; first experiment, 4 times daily from 3 days p.i.): did not crust but appeared to be faded by 6 days post infection | dermatitis (HSV-2; first experiment, day 4 after treatment, probably due to TEAC or its vehicle or both): a rash appeared | number and size of lesions (HSV-2; given 12-16 hours p.i.): significant reduction in the number of lesions, but also in their size | rupture and crusting of lesions (HSV-2; given 12-16 hours p.i.): neither ruptured nor crusted | vesicle formation (HSV-2; given 12-16 hours p.i.): less vesicles formed | vesicles (HSV-2; given 3 days p.i.): reduced in elevation and eventually resolved | number and appearance of lesions vs control (HSV-2; treatment from 12-16 hours p.i.): marked difference between the two groups | enhancement of plaque (HSV-1 (McKrae strain) [5]; 12.5 mg/ml): apparent enhancement of plaque | No. of Plaques (HSV-1 (McKrae strain) [5]; 12.5 mg/ml): 300 | monolayer appearance (HSV-1 (McKrae strain) [5]; 25 mg/ml): thinned out appearance | No. of Plaques (HSV-1 (McKrae strain) [5]; 25 mg/ml): 0 | plaque inhibition (HSV-1 (McKrae strain) [5]; 12.5, 6.25, 3.125 mg/ml): not significantly effective in achieving plaque inhibition | toxicity (Vero cells; 25 mg/ml, 48 hours): slight toxicity | change in morphology of cells (Vero cells; 5, 2.5, 1.25 mg/culture overnight): No change in the morphology of the cells | growth or general appearance vs untreated (Vero cells; 5, 2.5, 1.25 mg/culture, additional 24 hours in fresh medium): no apparent difference in the growth or general appearance | side effects ([6]; Patient A, first infusion 2.8 cc): some blurred vision and slight dizziness on rising to the seated position | side effects ([6]; Patient A, second infusion 3.2 cc): some blurred vision | drug related effects ([6]; Patient B, 3.7 cc (5 mg/kg)): blurred vision, dryness of the mouth, and unsteady gait | time to cessation of drug related effects after infusion ([6]; Patient B, 3.7 cc (5 mg/kg)): 10 to 15 min | side effects ([6]; Patient C, 3.85 cc (5 mg/kg)): slightly blurred vision | side effects ([6]; Patient D, 2.8 cc (5 mg/kg)): dry mouth and transient blurred vision | side effects ([6]; Patient E, 4.8 cc (5 mg/kg)): slightly blurred vision | reddening of lip ([6]; Patient G, 4.3 cc): some reddening of the lip | side effects ([6]; Patient J, 3.6 cc (5.5 mg/kg)): some blurred vision | side effects ([6]; Patient K, first infusion 3.1 cc): some blurred vision | side effects ([6]; Patient K, second infusion 3.4 cc): blurred vision | duration of feeling badly following treatment ([6]; Patient L, 2.9 cc (5.5 mg/kg)): 24 to 36 h | side effects ([6]; Patient L, 2.9 cc (5.5 mg/kg)): some blurred vision | average plaque number (HSV-1 (F strain) [7]; 2.5 mg/ml (1 ml plus 4 ml media), Vero, control 488.5): 75.5 plaque | size of the plaque vs control (HSV-1 (F strain) [7]; 2.5 mg/ml, Vero): appreciably smaller | suppression of viral growth (HSV-1 (F strain) [7]; summary of first series): not only by the reduced number of plaque, but also by their reduced size | crusting (HSV type 1; Patient L, 2.9 cc, normally 3 weeks): on the 7th day after the treatment, the crusting had all disappeared | labialis lesion (HSV type 1; Patient M, 1% TEAC ointment resumed, three days later): the lesion had not spread and had now crusted | clearing of lesions (HSV type 1; Patient M, 1% TEAC ointment, five days later): cleared in a shorter time period than usual
